Results as given in ChEMBL document CHEMBL5465560, “Selectivity Literature for EUbOPEN Chemogenomic Library” (2024).
Each block holds one molecule with its values, some of them ahead of it.

Legend:
[1] = target: T1, NUAK family SNF1-like kinase 1 (Homo sapiens) (UniProt O60285); experiment: Selectivity interaction (KinomeScan (DiscoverX)) EUB0000666a NUAK1; conditions: at 10 µM
T1 sequence (whole entry): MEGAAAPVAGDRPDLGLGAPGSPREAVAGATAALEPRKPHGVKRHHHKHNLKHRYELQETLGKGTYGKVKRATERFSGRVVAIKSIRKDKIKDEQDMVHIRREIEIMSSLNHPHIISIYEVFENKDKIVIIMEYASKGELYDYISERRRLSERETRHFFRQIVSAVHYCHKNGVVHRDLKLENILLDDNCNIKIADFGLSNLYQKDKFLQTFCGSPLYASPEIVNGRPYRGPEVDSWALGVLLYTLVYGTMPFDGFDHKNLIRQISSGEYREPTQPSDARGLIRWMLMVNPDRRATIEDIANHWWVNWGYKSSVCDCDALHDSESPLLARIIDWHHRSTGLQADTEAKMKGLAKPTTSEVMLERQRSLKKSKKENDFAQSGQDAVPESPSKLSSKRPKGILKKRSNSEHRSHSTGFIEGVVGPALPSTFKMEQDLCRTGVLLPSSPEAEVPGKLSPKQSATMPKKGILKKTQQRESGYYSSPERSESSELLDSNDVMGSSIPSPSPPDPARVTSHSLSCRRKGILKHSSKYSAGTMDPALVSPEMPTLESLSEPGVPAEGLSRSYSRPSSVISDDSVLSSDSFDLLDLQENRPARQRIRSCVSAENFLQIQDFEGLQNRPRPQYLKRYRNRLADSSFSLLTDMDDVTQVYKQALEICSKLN

[2] = target: Casein kinase I isoform gamma-3 (Homo sapiens) (UniProt Q9Y6M4); conditions: at 10 µM
[3] = target: T2, Protein kinase C iota type (Homo sapiens) (UniProt P41743); experiment: Selectivity interaction (ActivX KiNativ screen (kinase selectivity in THP-1 cell lysates)) EUB0000639a PRKCI; assay type: subcellular; conditions: lysate, at 1 µM
T2 sequence (whole entry): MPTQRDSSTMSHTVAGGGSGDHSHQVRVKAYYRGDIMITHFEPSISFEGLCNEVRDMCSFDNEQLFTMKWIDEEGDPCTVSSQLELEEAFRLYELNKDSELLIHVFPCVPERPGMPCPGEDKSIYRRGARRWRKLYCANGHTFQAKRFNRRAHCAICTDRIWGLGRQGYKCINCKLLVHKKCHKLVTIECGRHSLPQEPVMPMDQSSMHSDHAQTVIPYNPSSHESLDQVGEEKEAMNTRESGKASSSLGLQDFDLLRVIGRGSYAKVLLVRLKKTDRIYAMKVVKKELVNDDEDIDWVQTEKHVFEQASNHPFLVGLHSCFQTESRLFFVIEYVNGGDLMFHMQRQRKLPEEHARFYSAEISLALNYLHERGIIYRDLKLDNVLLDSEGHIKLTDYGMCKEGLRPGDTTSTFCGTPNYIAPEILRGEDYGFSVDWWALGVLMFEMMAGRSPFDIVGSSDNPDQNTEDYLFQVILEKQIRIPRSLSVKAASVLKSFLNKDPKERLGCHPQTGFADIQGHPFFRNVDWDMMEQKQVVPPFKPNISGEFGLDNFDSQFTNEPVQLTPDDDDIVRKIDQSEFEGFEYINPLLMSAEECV

[4] = target: T3, Mitogen-activated protein kinase kinase kinase 6 (Homo sapiens) (UniProt O95382); experiment: Selectivity interaction (KinomeScan (DiscoverX)) EUB0000045b MAP3K6
T3 sequence (whole entry): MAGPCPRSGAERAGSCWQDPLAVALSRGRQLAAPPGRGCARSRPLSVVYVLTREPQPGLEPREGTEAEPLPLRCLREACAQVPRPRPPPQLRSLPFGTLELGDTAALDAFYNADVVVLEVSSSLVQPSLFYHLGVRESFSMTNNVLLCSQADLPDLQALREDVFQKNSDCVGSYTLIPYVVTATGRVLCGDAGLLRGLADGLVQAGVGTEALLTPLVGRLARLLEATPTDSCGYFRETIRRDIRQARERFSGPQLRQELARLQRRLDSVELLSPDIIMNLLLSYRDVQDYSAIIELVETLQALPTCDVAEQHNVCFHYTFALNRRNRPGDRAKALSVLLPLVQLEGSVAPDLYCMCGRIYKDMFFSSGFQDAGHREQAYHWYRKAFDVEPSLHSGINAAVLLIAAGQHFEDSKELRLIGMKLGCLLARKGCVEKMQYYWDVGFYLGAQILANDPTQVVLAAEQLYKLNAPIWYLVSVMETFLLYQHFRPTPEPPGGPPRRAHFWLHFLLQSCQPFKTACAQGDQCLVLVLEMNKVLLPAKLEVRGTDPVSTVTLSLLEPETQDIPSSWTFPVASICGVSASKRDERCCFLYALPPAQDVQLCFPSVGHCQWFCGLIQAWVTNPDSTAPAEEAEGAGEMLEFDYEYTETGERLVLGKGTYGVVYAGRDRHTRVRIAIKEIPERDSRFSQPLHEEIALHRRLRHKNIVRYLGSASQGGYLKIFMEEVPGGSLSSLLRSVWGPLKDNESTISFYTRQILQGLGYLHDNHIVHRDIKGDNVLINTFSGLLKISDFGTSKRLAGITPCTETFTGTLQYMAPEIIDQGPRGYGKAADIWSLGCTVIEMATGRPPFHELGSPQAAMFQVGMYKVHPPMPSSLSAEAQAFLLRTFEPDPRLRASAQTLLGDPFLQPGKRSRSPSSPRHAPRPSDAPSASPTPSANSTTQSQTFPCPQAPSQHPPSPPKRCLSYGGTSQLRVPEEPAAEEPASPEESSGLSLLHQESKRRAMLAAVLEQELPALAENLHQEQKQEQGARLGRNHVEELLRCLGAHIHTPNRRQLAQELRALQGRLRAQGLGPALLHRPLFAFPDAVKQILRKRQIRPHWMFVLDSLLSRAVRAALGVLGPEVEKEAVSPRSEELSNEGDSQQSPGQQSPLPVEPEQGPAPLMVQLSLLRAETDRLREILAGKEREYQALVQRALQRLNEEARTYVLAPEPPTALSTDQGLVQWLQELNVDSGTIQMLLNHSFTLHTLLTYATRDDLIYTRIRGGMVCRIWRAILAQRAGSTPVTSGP

Sequence of Casein kinase I isoform gamma-3 (Homo sapiens) (Q9Y6M4 whole entry, looked up, canonical isoform): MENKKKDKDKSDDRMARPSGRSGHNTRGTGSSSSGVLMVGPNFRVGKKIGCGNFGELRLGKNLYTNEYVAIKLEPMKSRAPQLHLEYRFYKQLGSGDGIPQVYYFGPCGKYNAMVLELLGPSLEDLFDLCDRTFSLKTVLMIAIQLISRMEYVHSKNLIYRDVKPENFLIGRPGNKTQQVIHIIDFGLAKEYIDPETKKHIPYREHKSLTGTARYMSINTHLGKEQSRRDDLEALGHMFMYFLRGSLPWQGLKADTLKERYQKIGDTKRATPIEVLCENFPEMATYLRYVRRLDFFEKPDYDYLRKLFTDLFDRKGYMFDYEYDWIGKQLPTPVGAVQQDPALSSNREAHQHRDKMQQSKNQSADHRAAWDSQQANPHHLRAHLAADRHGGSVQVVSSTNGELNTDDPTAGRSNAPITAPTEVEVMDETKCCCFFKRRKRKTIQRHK

SMILES: O=C(NOC[C@H](O)CO)c1ccc(F)c(F)c1Nc1ccc(I)cc1F
- % of control [1]: 81%

- % of control [2]: 100%
SMILES: CCN(CC)CCCCNc1ncc2cc(-c3cc(OC)cc(OC)c3)c(NC(=O)NC(C)(C)C)nc2n1

- % of inhibition [3]: 2.2%
SMILES: CC[C@@H]1[C@H](F)C(=O)N[C@@H]1COc1nccc2cc(C(N)=O)c(OC)cc12 [ZIMLOVISERTIB]

SMILES: C=CC(=O)Nc1cc(-n2c(=O)ccc3cnc4ccc(-c5ccc(NS(C)(=O)=O)cc5)cc4c32)ccc1C
- % of control ([4]; at 1 µM): 100%
- % of control ([4]; at 10 µM): 100%
